Measured values taken from article PMC9229949 (Pharmaceutics, 2022).
pIC50: −log10 of the molar value. Read-outs that look alike come from different tables or passages of the source.

Columns and labels:
[1] = test system: P. berghei sporozoites in Huh-7 cells; assay: P. berghei hepatic stages: infection of Huh-7 cells by luciferase-expressing sporozoites; format: cell-based
Experimental: Huh-7 cells at 1.0 × 10^4 per well were seeded in 96-well plates the day before drug treatment and infection. The culture medium was replaced by infection medium (culture medium supplemented with gentamicin (50 μg/mL) and amphotericin B (0.8 μg/mL)) containing the appropriate concentration of each compound for approximately 1 h prior to infection with sporozoites of firefly luciferase-expressing P. berghei, freshly obtained through the disruption of salivary glands of infected female Anopheles stephensi mosquitoes. An amount of the DMSO solvent equivalent to that present in the highest compound concentration was used as negative control. Sporozoite addition was followed by centrifugation at 1800× g for 5 min. and parasite infection load was measured 48 h after infection by using a bioluminescence assay (Biotium, Hayward, CA, USA). The effect of the compounds on the viability of Huh-7 cells was assessed by performing the AlamarBlue (Invitrogen, Waltham, MA, USA) assay according to the manufacturer’s protocol.

human TrxR (hTrxR) = molecular target: T1, human TrxR (hTrxR) (Homo sapiens, UniProt Q16881); assay: Inhibition of enzymatic activity of recombinant human TrxR; format: biochemical; conditions: recombinant enzyme, 15 min preincubation; mean of one experiment; read-out: IC50 for TrxRs, Human (Sec)
T1 construct: made in house
T1 sequence (Q16881 151-649 limits assumed): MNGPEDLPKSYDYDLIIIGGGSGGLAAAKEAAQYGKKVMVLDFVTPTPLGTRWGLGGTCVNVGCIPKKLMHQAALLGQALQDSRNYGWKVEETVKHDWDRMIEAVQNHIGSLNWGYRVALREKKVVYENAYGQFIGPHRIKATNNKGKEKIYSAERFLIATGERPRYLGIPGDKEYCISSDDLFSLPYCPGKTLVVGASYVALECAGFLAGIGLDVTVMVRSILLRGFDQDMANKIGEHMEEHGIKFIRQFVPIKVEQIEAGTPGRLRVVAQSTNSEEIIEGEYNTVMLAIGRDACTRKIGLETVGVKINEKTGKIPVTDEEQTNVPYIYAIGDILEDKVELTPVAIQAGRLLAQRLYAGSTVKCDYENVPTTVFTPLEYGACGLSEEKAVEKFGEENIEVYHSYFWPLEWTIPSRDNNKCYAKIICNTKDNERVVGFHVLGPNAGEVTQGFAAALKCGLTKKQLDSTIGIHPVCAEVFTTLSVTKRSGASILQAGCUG
Experimental: (§1) The codon-optimized sequence for PfTrxR [27, 28] was synthesized and subcloned into pET-15b (Genscript) and expressed and purified as for human glutathione reductase (hGR). Recombinant Schistosoma mansoni (S. mansoni) thioredoxin glutathione reductase (SmTGR), human TrxR (hTrxR), and hGR proteins were expressed and purified as described. TrxR and TGR enzyme inhibition assays were performed in triplicate at 25 °C in 0.1 M potassium phosphate (pH 7.4), 10 mM EDTA, 100 µM NADPH and 0.01% Tween-20. SmTGR (4 nM), hTrxR (4 nM), and PfTrxR (50 nM) were preincubated with the compounds for 15 min. The reaction was started with addition of an equal volume of 5,5′-dithiobis(2-nitrobenzoic acid) (6 mM) and NADPH (100 µM). The increase in A412 during the first 3 min was recorded. […]. The reactions were performed in triplicate. The IC50s were calculated in Prism version 5.01.

[2] = molecular target: T2, S. mansoni thioredoxin-glutathione reductase (SmTGR) (Schistosoma mansoni, UniProt Q962Y6); assay: Inhibition of enzymatic activity of recombinant S. mansoni thioredoxin glutathione reductase; format: biochemical; conditions: 15 min preincubation, mean of one experiment, read-out: IC50 for TrxRs, S. mansoni (Sec)
T2 construct: made in house
T2 sequence (Q962Y6 1-598): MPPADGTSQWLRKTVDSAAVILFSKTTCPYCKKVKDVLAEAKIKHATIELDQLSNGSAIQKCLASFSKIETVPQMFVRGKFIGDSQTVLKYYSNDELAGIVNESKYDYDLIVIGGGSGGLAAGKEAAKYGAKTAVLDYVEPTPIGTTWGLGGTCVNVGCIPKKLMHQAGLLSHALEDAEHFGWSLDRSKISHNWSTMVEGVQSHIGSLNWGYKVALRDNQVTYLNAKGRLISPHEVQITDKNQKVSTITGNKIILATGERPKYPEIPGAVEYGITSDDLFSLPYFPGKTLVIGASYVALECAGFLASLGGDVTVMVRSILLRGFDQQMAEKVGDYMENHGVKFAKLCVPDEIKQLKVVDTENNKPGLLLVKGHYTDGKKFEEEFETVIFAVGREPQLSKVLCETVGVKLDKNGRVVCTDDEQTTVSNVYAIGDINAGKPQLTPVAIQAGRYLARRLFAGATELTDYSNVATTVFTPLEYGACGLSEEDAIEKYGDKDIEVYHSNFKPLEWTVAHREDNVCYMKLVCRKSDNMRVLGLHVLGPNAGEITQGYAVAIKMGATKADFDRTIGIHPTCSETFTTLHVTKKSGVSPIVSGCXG
Experimental: as §1

PfTrxR = molecular target: T3, PfTrxR (Plasmodium falciparum, UniProt Q25861); assay: Inhibition of enzymatic activity of recombinant P. falciparum TrxR; format: biochemical
T3 construct: made in house
T3 sequence (Q25861 1-541): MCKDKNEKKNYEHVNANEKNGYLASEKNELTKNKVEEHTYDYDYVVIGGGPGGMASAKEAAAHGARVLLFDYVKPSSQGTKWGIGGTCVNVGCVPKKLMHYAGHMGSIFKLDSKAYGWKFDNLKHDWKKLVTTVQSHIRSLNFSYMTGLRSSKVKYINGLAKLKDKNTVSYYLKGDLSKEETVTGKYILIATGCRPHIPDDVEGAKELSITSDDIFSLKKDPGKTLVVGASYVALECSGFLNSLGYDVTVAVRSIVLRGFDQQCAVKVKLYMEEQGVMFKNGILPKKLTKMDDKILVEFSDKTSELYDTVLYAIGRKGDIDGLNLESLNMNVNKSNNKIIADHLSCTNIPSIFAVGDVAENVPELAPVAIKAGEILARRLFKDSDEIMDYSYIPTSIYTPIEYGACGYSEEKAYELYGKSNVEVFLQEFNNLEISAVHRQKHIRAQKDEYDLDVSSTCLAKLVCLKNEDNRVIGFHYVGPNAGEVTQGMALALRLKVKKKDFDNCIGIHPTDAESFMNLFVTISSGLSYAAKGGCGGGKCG
Experimental: as §1

Compound | inhibition at 10 µM ([1]; Plasmodium berghei, Huh-7, 48 h, read-out: Sporozoites (Inhibition of Infection, %)) | pIC50 (human TrxR (hTrxR)) | pIC50 [2] | pIC50 (PfTrxR) | inhibitory activity for the hepatic stages ([1]; up to 10 μM) | pIC50 (PfTrxR; recombinant enzyme, 15 min preincubation, mean of one experiment, read-out: IC50 for TrxRs, P. falciparum (Cys))
CCN(CC)Cc1cc(Nc2ccnc3cc(Cl)ccc23)ccc1O [Amodiaquine (AQ), amodiaquine] | 71% | 4.58 | 4.38 | < 4.18 | – | –
[Cl][Au].c1ccc(P(c2ccccc2)c2ccccc2)cc1 [[AuClPPh3]] | – | 9.19 | 9.30 | – | no inhibitory activity | 8.72
